Measurements taken from patent US6348627B1 (priority 1999, dated 2002).

How the values were obtained:
[1] = tested on: Puccinia recondita (f sp. tritici); details: 150 grams per hectare; wheat cultivar Fielder; evaluated after 12 days
[2] = tested on: Sphaerotheca fulginea; details: 150 grams per hectare; cucumber cultivar Bush Champion; scored seven days after inoculation
[3] = tested on: Colletotrichum lagenarium; details: 150 grams per hectare; cucumber cultivar Bush Champion
[4] = tested on: Pseudoperonospora cubensis; details: 9 grams per hectare; detached cucumber leaf; five days

Structure (SMILES) | percent disease control, wheat leaf rust [1] | percent disease control, cucumber powdery mildew [2] | percent disease control, cucumber anthracnose [3] | percent disease control, cucumber downy mildew [4]
CNC(=O)C(=NOC)c1ccccc1CON=C(C)C1CC1(C)c1ccccc1 (stereo not drawn) [Compound 3.11, (E,E and Z,E)-N-Methyl 2-[2-((trans-1-(2-phenyl-2-methyl-cyclopropyl)ethylidene)aminooxymethyl)phenyl]-2-methoxyiminoacetamide] | 100% | 100% | 100% | 
CNC(=O)/C(=N/OC)c1ccccc1CO/N=C(\C)C1CC1(C)c1ccc(Cl)cc1 (centres unmarked) [Compound 3.14A, (E,E)-N-Methyl 2-[2-((1-(2-(4′-chlorophenyl)-2-methylcyclopropyl)ethylidene)aminooxymethyl)phenyl]-2-methoxyiminoacetamide] | 100% | 100% | 100% | 
CON=C(C(=O)OC)c1ccccc1CON=C(C)C1CC1c1c(Cl)cccc1Cl (stereo not drawn) [Compound 8.1, Methyl 2-[2-((trans-1-(2-(2′,6′-dichlorophenyl)cyclopropyl)ethylidene)aminooxymethyl)phenyl]-2-methoxyiminoacetate] |  | 100% |  | 
CNC(=O)C(=NOC)c1ccccc1CON=C(C)C1CC1c1c(Cl)cccc1Cl (stereo not drawn) [Compound 9.1, N-Methyl 2-[2-((trans-1-(2-(2′,6′-dichlorophenyl)cyclopropyl)ethylidene)aminooxymethyl)phenyl]-2-methoxyiminoacetamide] | 100% | 100% | 100% | 
CNC(=O)C(=NOC)c1ccccc1CON=C(C)C1CC1c1c(F)cccc1F (stereo not drawn) [Compound 9.7A, N-Methyl 2-[2-((trans-1-(2-(2′,6′-difluorophenyl)cyclopropyl)ethylidene)aminooxymethyl)phenyl]-2-methoxyiminoacetamide] | 100% | 100% | 100% | 100%
